In brackets after ≈: the same amount, converted by molar mass. Like-named read-outs stand apart in the source and are kept apart here.
Experiments:
PC-3 cells [1] = experiment: Glucose uptake assay (2-NBDG), plate reader-based measurement; type: cell-based, human; settings: PC-3, 24 h
Experimental: (§1) The effects of the synthesized substance on glucose uptake were evaluated using the Glucose Uptake Cell-Based Assay Kit (Cayman chemicals, Ann Arbor, MI, USA) and two different methods. (a) Plate reader-based measurement: PC-3 cells (12 × 10^3 cells/well) were seeded in two 96-well plates, incubated overnight, and treated with the investigated drugs in 100 µL/well of glucose-free 0.1% FBS/RPMI media for 24 h. Then, the 10 µL/well of either 2-NBDG solution (2-deoxy-2-[(7-nitro-2,1,3-benzoxadiazol-4-yl)amino]-D-glucose, 5 mg/mL, for glucose uptake measurements) or vehicle solution (for cell viability measurements) in glucose-free 0.1% FBS/RPMI media were added to each well. […] Then, for glucose uptake measurements, the 100 µL/well of PBS were added and the fluorescence was measured using Infinite F200PRO reader (TECAN, Männedorf, Switzerland); or, for the cell viability measurements, 100 µL/well of media containing MTS reagent were added to the cells and viability was measured as described before. Glucose uptake rate was normalized to the cell viability measured by MTS assay in order to measure the uptake rate exclusively in the viable cells. (b) FACS-based readout: The experiment was performed as described before. […] The plates were then incubated with 2-NBDG solution, the cells were harvested by trypsination, washed, stained with PI, and analyzed using a flow cytometry.

22Rv1 cells [2] = experiment: Analysis of mitochondrial membrane potential (JC-1, FACS); type: cell-based, human; settings: 22Rv1, 2 μM
Experimental: The drop down of mitochondrial membrane potential (ΔΨm) was measured using staining with ΔΨm-sensitive JC-1 dye (5,5′,6,6′-Tetrachloro-1,1′,3,3′-tetraethyl-imidacarbocyanine iodide) and flow cytometry technique. Cells (10^5 cells/well) were seeded in 12-well plates and incubated overnight. […] The cells were trypsinized, pelleted, resuspended in 100 µL of 2 µM JC-1/PBS, incubated for 1 h (37 °C, 5% CO2, in the dark), and analyzed by flow cytometry technique.

22Rv1 cells [3] = experiment: MTT cytotoxicity in 22Rv1 cells with or without N-acetyl-L-cysteine; type: cell-based, human; settings: without NaC, FBS- and glucose-free media, 48 h, read-out: IC50 (viability of 22Rv1 cells)
Experimental: (§2) Cell viability was determined by MTT assay. Cells were pre-incubated overnight in 96-well plates (6 × 10^3 cells/well in 100 μL/well). Then, the medium was replaced with fresh medium containing the determined compounds (100 μL/well), and cells were incubated for the indicated time. Next, 10 μL/well of (3-(4,5-dimethylthiazol-2-yl)-2,5-diphenyltetrazolium bromide) reagent were added. After 2–4 h of incubation, the media was aspirated and the plates were dried. Fifty microliters per well of DMSO were added to each well and the cell viability was measured using Infinite F200PRO reader (TECAN, Männedorf, Switzerland). Results were calculated by The GraphPad Prism software v. 7.05 (GraphPad Prism software Inc., La Jolla, CA, USA) and are represented as IC50 of the compounds against control cells treated with the solvent alone.

22Rv1 cells [4] = experiment: Cell fractionation (mitochondrial, cytoplasmic, total) with Western blotting; type: cell-based, human; settings: 22Rv1, 48 h
Experimental: (§3) Cells (10^6 cells/well) were seeded in Petri dishes (ø 6 cm) and incubated overnight. The cells were treated with the investigational drugs in fresh culture media (5 mL/dish) for 48 h. Then, cells were harvested by scratching and lysed in the lysis buffer (1% NP-40, 50 mM Tris-HCl (pH 7.6), 0.88% NaCl, 0.25% sodium cholate, 1 mM Na3VO4, 0.1 mM PMSF, protease inhibitors cocktail (cOmplete Mini EDTA-free EASYpacks, Roche, Mannheim, Germany)). Proteins were extracted and diluted with lysis buffer and loading dye, heated 5 min at 99 °C and subjected to electrophoresis in gradient Mini-PROTEAN® TGX Stain-Free^TM gels (Bio-Rad, Hercules, CA, USA). Proteins were transferred from gel to 0.2 µm pore PVDF membrane using Trans-Blot® Turbo^TM RTA Mini PVDF Trans kit (Bio-Rad) and Trans-Blot® Turbo^TM Blotting System (Bio-Rad) according to the manufactures protocol. The membrane was blocked (5% BSA in 0.05% Tween-20/TBS), treated with primary and secondary antibodies, and the signals were detected using the ECL chemiluminescence system (Thermo Scientific, Rockford, IL, USA). All procedures were performed according to the manufacturer′s protocols.
The separation of cellular nuclear, mitochondrial, and cytosolic fractions was performed using the Cell Fractionation Kit ab109719 (abcam, Cambridge, MA, USA). […]

22Rv1 cells [5] = experiment: Analysis of intracellular ROS level (CM-H2DCFDA, FACS); type: cell-based, human; settings: 22Rv1, 0.5 μM, 2 h
Experimental: Intracellular ROS levels were accessed using the ROS-sensitive CM-H2DCFDA reagent (Cat. No. C6827, Molecular probes, Invitrogen, Eugene, OR, USA). The experiment was performed as previously described with slight modifications. In brief, 22Rv1 cells (10^5 cells/well) were seeded in 12-well plates and incubated overnight. The media was changed with freshly made pre-warmed staining solution (4 µM CM-H2DCFDA/PBS, 0.5 mL/well) and incubated in the dark (37 °C, 5% CO2) for 30 min. Then, the staining solution was exchanged with 1 mL/well of pre-warmed PBS containing the investigated compounds or H2O2 (positive control) at the indicated concentrations and the cells were incubated for 2 h. Next, the cells were trypsinized, resuspended in pre-warmed PBS (200 µL/sample) and immediately analyzed by FACS according to the manufacture′s protocol.

[6] = test system: human drug-resistant prostate cancer PC-3 cells; experiment: MTT cytotoxicity in PC-3 cells; type: cell-based; settings: for IC50: 24 h, read-out: IC50 (viability of PC-3 cells)
Experimental: as §2

PC-3 cells [7] = type: cell-based, human; settings: PC-3, zVAD 100 µM, 48 h
22Rv1 cells [8] = experiment: Western blotting of protein expression; type: cell-based, human
Experimental: as §3

PC-3 cells [9] = experiment: Glucose uptake assay (2-NBDG), FACS-based readout; type: cell-based, human; settings: PC-3, 24 h
Experimental: as §1

22Rv1 cells [10] = experiment: Analysis of cell cycle progression and DNA fragmentation (PI staining, FACS); type: cell-based, human; settings: 22Rv1, 48 h
Experimental: Cells (2 × 10^5 cells/well) were pre-incubated overnight in 6-well plates. Then, cells were treated with the substances in 2 mL of fresh culture media/well for 48 h. Cells were harvested by trypsination, fixed in 70% EtOH, stained with PI, and analyzed by FACS Calibur (BD Bioscience, San Jose, CA, USA). The results were quantified using BD Bioscience Cell Quest Pro v.5.2.1. software (BD Bioscience, San Jose, CA, USA). The sub-G1 population was considered to reflect apoptotic cells (containing fragmented DNA).

[11] = test system: human cancer HeLa S3 cells; design: method as in PMID 3437287; settings: cited from earlier work

6-(1,2,3,4-Tetra-O-acetyl-6-deoxy-β-D-glucopyranos-6-ylthio)-5,8-dihydroxy-7-methyl-2,3-dimethoxy-1,4-naphthoquinone [SAB-13]
glucose uptake (2-NBDG, plate reader), normalized to cell viability (PC-3 cells [1]): inhibition of glucose uptake | cells containing depolarized mitochondria (JC-1) (22Rv1 cells [2]; 2 h): 47.3±6.1% | cells containing depolarized mitochondria (JC-1) (22Rv1 cells [2]; 48 h): 69.5±8.1% | IC50 (22Rv1 cells [3]): 2.3 ± 0.3 µM | redistribution of mitochondrial proteins (cytochrome C, AIF) to cytoplasm (22Rv1 cells [4]): release of cytotoxic mitochondrial proteins to cellular cytoplasm | ROS level (CM-H2DCFDA, FACS) (22Rv1 cells [5]): 31.2±3.2% | IC50 ([6]; glucose-containing media (+Glc, 2 g/L)): 10.8 ± 1.7 µM | IC50 ([6]; glucose-free media (−Glc)): 5 ± 1.1 µM | higher cytotoxicity compared with SAB-14 ([6]; screening, MTT, 48 h): ~ 10 fold | effect of co-treatment with pan-caspase inhibitor zVAD on cytotoxic effects (PC-3 cells [7]): antagonized the cytotoxic effects | caspase-9 activation (cleaved caspase-9, Western blotting) (22Rv1 cells [8]; 22Rv1, 2 h): activated caspase-9 shortly after treatment | cleavage of caspase-3 (Western blotting) (22Rv1 cells [8]; 22Rv1, 48 h): cleavage of caspase-3 was observed | p21 expression (Western blotting) (22Rv1 cells [8]; 22Rv1, 48 h): upregulation of p21 | PARP cleavage (Western blotting) (22Rv1 cells [8]; 22Rv1, 48 h, concentrations close to IC50s): PARP cleavage | glucose uptake (2-NBDG, single cells by flow cytometry), normalized to cell viability (PC-3 cells [9]): inhibition of glucose uptake | DNA fragmentation (sub-G1 peak) (22Rv1 cells [10]): DNA fragmentation | cell cycle progression (22Rv1 cells [10]): G2/M-cell cycle arrest

COC1=C(OC)C(=O)c2c(O)c(OC)cc(O)c2C1=O [tricrozarin B]
IC50 (colony formation) [11]: 7 ng/mL (≈ 0.025 µM)
